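Step 1: Grow cells in 96-well plates. Step 2: Expose to compound for 48 hours at 5 concentrations. Step 3: Interpolate endpoints linearly; if unreached, use highest concentration. At the GI50, growth is halved. TGI: total growth inhibition.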
Assays:
Assay in all cases: DTP human tumour cell line panel, 48 h
[1] = tested on: 786-0 renal
[2] = tested on: A498 renal
[3] = tested on: A549 NSCLC
[4] = tested on: ACHN renal
[5] = tested on: BT-549 breast
[6] = tested on: CAKI-1 renal
[7] = tested on: CCRF-CEM leukemia
[8] = tested on: COLO 205 colon
[9] = tested on: DU-145 prostate
[10] = tested on: EKVX NSCLC
[11] = tested on: HCC-2998 colon
[12] = tested on: HCT-116 colon
[13] = tested on: HCT-15 colon
[14] = tested on: HL-60(TB) leukemia
[15] = tested on: HOP-62 NSCLC
[16] = tested on: HOP-92 NSCLC
[17] = tested on: HS 578T breast
[18] = tested on: HT29 colon
[19] = tested on: IGROV1 ovarian
[20] = tested on: K-562 leukemia
[21] = tested on: KM12 colon
[22] = tested on: LOX IMVI melanoma
[23] = tested on: M14 melanoma
[24] = tested on: MALME-3M melanoma
[25] = tested on: MCF7 breast
[26] = tested on: MDA-MB-231 breast
[27] = tested on: MDA-MB-435
[28] = tested on: MOLT-4 leukemia
[29] = tested on: NCI-H226 lung
[30] = tested on: NCI-H23 lung
[31] = tested on: NCI-H460 lung
[32] = tested on: NCI-H522 lung
[33] = tested on: OVCAR-3 ovarian
[34] = tested on: OVCAR-4 ovarian
[35] = tested on: OVCAR-5 ovarian
[36] = tested on: OVCAR-8 ovarian
[37] = tested on: PC-3 prostate
[38] = tested on: RPMI-8226 leukemia
[39] = tested on: RXF 393 renal
[40] = tested on: SF-268 CNS
[41] = tested on: SF-295 CNS
[42] = tested on: SF-539 CNS
[43] = tested on: SK-MEL-2 melanoma
[44] = tested on: SK-MEL-28 melanoma
[45] = tested on: SK-MEL-5 melanoma
[46] = tested on: SK-OV-3 ovarian
[47] = tested on: SN12C renal
[48] = tested on: SNB-19 CNS
[49] = tested on: SR leukemia
[50] = tested on: SW-620 colon
[51] = tested on: T-47D breast
[52] = tested on: TK-10 renal
[53] = tested on: U251 CNS
[54] = tested on: UACC-257 melanoma
[55] = tested on: UACC-62 melanoma
[56] = tested on: UO-31 renal

## COc1cc(-n2cncc2-c2ccc3ccccc3c2)cc(OC)c1OC
[1]
  GI50: 49.6 nM
  TGI: 18500 nM
[2]
  GI50: < 10 nM
  TGI: 1410 nM
[3]
  GI50: 26.9 nM
  TGI: > 100000 nM
[4]
  TGI: > 57200 nM
[5]
  GI50: 62.1 nM
  TGI: > 100000 nM
[6]
  GI50: 37 nM
  TGI: > 100000 nM
[7]
  GI50: 34.4 nM
  TGI: > 100000 nM
[8]
  GI50: < 10 nM
  TGI: 391 nM
[9]
  GI50: 32.4 nM
  TGI: > 100000 nM
[10]
  GI50: 65.7 nM
  TGI: > 100000 nM
[11]
  GI50: < 11.6 nM
  TGI: 29.7 nM
[12]
  GI50: < 18.1 nM
  TGI: > 34600 nM
[13]
  GI50: < 16.9 nM
  TGI: > 53200 nM
[14]
  GI50: < 10 nM
  TGI: 1540 nM
[15]
  GI50: 39.1 nM
  TGI: 25100 nM
[16]
  GI50: 957 nM
  TGI: > 100000 nM
[17]
  GI50: < 12.7 nM
  TGI: > 100000 nM
[18]
  GI50: < 14.4 nM
  TGI: > 70600 nM
[19]
  GI50: 87.2 nM
  TGI: > 38000 nM
[20]
  GI50: < 10 nM
  TGI: > 83400 nM
[21]
  GI50: < 10 nM
  TGI: > 100000 nM
[22]
  GI50: 87.2 nM
  TGI: > 41800 nM
[23]
  GI50: 17.1 nM
  TGI: 5620 nM
[24]
  GI50: > 100000 nM
  TGI: > 100000 nM
[25]
  GI50: < 10 nM
  TGI: > 100000 nM
[26]
  GI50: 59.5 nM
  TGI: > 57600 nM
[27]
  GI50: < 10 nM
  TGI: > 100000 nM
[28]
  GI50: 53.8 nM
  TGI: > 66900 nM
[29]
  GI50: 2030 nM
  TGI: > 62000 nM
[30]
  GI50: 25.5 nM
  TGI: 5910 nM
[31]
  GI50: < 17.9 nM
  TGI: > 100000 nM
[32]
  GI50: < 10 nM
[33]
  GI50: < 17.9 nM
  TGI: > 100000 nM
[34]
  TGI: > 100000 nM
[35]
  GI50: 48.4 nM
  TGI: 53400 nM
[36]
  GI50: 54.6 nM
  TGI: > 100000 nM
[37]
  GI50: 15.8 nM
  TGI: > 100000 nM
[38]
  GI50: 54.3 nM
  TGI: > 100000 nM
[39]
  GI50: 19.9 nM
  TGI: 28900 nM
[40]
  GI50: 26 nM
  TGI: > 59000 nM
[41]
  GI50: < 10 nM
  TGI: > 100000 nM
[42]
  GI50: 18.4 nM
  TGI: 73400 nM
[43]
  GI50: 30.9 nM
  TGI: 51800 nM
[44]
  TGI: > 100000 nM
[45]
  GI50: < 10 nM
[46]
  GI50: 51.8 nM
  TGI: > 69400 nM
[47]
  GI50: 1050 nM
  TGI: > 100000 nM
[48]
  GI50: 23.4 nM
  TGI: > 100000 nM
[49]
  GI50: < 10 nM
  TGI: 10400 nM
[50]
  GI50: < 15.9 nM
  TGI: > 100000 nM
[51]
  GI50: > 100000 nM
  TGI: > 100000 nM
[52]
  GI50: 33800 nM
  TGI: > 100000 nM
[53]
  GI50: 23 nM
  TGI: 16700 nM
[54]
  GI50: > 87000 nM
  TGI: > 100000 nM
[55]
  TGI: > 54500 nM
[56]
  GI50: 401 nM
  TGI: > 100000 nM
